# Measured values taken from US20250195511A1, “INDAZOLE DERIVATIVES USEFUL AS INHIBITORS OF NOD-LIKE RECEPTOR PROTEIN 3” (Merck Sharp & Dohme LLC, priority 2023, published 2025).
# pEC50: −log10 of the molar value.
# Tested on: NLRP3 inflammasome
# Experiment: NLRP3 inflammasome activation: ASC-SPECK formation in gramicidin-stimulated THP-1 cells
# Assay type: cell-based
# Conditions: Homo sapiens, THP-1, inhibition of ASC SPECK formation; PMA-treated human monocytic THP-1 cells, compound 1 h before 12.5 μg/ml gramicidin, 3-hour treatment
# In short: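 Undifferentiated human THP-1 cells primed overnight with 10 ng/ml PMA, then given compounds 1 h before 12.5 μg/ml gramicidin for 3 h at 37° C in RPMI with 0.01% BSA. Fixed cells immunostained for ASC with DRAQ5 nuclear counterstain; DRAQ5-positive cells with ASC specks counted by high-content imaging; EC50 from curve fitting.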
row,pEC50,SMILES
1,6.85,"Cc1cc(C(F)(F)F)cc(O)c1-c1cnc2cn(C3(C)CCOCC3)nc2n1 [Example 51, 3-methyl-2-[2-(4-methyltetrahydropyran-4-yl)pyrazolo[3,4-b]pyrazin-6-yl]-5-(trifluoromethyl)phenol]"
2,7.40,"Cc1cc(C(F)(F)F)cc(O)c1-c1cnc2cn([C@H]3C[C@@H]3C)nc2n1 [Example 52, 3-methyl-2-[2-[(1S,2S)-2-methylcyclopropyl]pyrazolo[3,4-b]pyrazin-6-yl]-5-(trifluoromethyl)phenol]"
3,7.57,"Cc1cc(Cl)cc(O)c1-c1cnc2cn([C@H]3C[C@H](F)C3)nc2n1 [Example 55, 5-chloro-2-(2-((1R,3R)-3-fluorocyclobutyl)-2H-pyrazolo[3,4-b]pyrazin-6-yl)-3-methylphenol]"
4,7.38,"Cc1cc(Cl)cc(O)c1-c1cnc2cn([C@@H]3[C@@H]4COC[C@@H]43)nc2n1 [Example 56, 2-(2-((1R,5S,6S)-3-oxabicyclo[3.1.0]hexan-6-yl)-2H-pyrazolo[3,4-b]pyrazin-6-yl)-5-chloro-3-methylphenol]"
5,7.22,"Cc1cc(Cl)cc(O)c1-c1cnc2cn([C@H]3[C@@H]4COC[C@@H]43)nc2n1 [Example 57, 2-(2-((1R,5S,6R)-3-oxabicyclo[3.1.0]hexan-6-yl)-2H-pyrazolo[3,4-b]pyrazin-6-yl)-5-chloro-3-methylphenol]"
6,6.77,"CCN1C[C@H](Cn2cc3ncc(-c4c(C)cc(C(F)(F)F)cc4O)nc3n2)OC1=O [Example 110, (R)-3-ethyl-5-((6-(2-hydroxy-6-methyl-4-(trifluoromethyl)phenyl)-2H-pyrazolo[3,4-b]pyrazin-2-yl)methyl)oxazolidin-2-one]"
7,6.39,"Cc1cc(C(F)(F)F)cc(O)c1-c1cnc2nn([C@H]3C[C@H](F)C3)nc2n1 [Example 121, 2-(2-((1R,3R)-3-fluorocyclobutyl)-2H-[1,2,3]triazolo[4,5-b]pyrazin-5-yl)-3-methyl-5-(trifluoromethyl)phenol]"
